# Laboratory results reported in PubChem BioAssay AID212 (DTP/NCI, 2004).
# “And” between values parts separate entries of the source, which are not always exact repeats. Equal entries are not always repeated. Results filed as inconclusive are left out.
# System: BDF1 mice, colon carcinoma 38 sc, T/C %
# Assay: NCI In Vivo Anticancer Drug Screen. Data for tumor model Colon Carcinoma 38 (subcutaneous) in B6D2F1 (BDF1) mice
# Conditions: endpoint: median tumor weight (est.), higher = larger tumour
# Method in brief: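 T/C readout: treated group (T) measurement over vehicle control group (C) measurement. Endpoint is survival or tumor size in mice bearing a transplanted tumor.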
# [1] = dose: 12.5 mg/kg/injection, schedule: Q07DX002 (ip), vehicle: saline
# [2] = dose: 50.0 mg/kg/injection, schedule: Q07DX002 (ip), vehicle: saline
structure (smiles),measurement,setting,value
CC(=O)C(O)N1C(=O)C=CC1=O (centres undefined),T/C,"dose: 0.62 mg/kg/injection, schedule: Q07DX003 (ip), vehicle: saline",109 % of control
same,T/C,"dose: 1.25 mg/kg/injection, schedule: Q07DX003 (ip), vehicle: saline",76 % of control
same,T/C,"dose: 2.5 mg/kg/injection, schedule: Q07DX003 (ip), vehicle: saline",111 % of control
same,T/C,"dose: 5.0 mg/kg/injection, schedule: Q07DX003 (ip), vehicle: saline",108 % of control
O=C1C=CC(n2cc(F)c(=O)[nH]c2=O)O1 (centres undefined),T/C,[1],113 % of control
same,T/C,"dose: 100.0 mg/kg/injection, schedule: Q07DX002 (ip), vehicle: saline",54 % of control
same,T/C,"dose: 200.0 mg/kg/injection, schedule: Q07DX002 (ip), vehicle: saline",116 % of control
OCCOCCN1CCN(CCCN2c3ccccc3Sc3ccc(C(F)(F)F)cc32)CC1,T/C,[1],94 % of control
same,T/C,[2],99 % of control
Nc1nc(-c2ccccc2)c(Br)c(=O)[nH]1,T/C,"dose: 200.0 mg/kg/injection, schedule: Q07DX002 (ip), vehicle: saline with Tween-80",105 % of control
same,T/C,"dose: 1600.0 mg/kg/injection, schedule: Q07DX002 (ip), vehicle: saline with Tween-80",36 % of control and 43 % of control
OCCN1CCN(CC/C=C2/c3ccccc3Sc3ccc(C(F)(F)F)cc32)CC1,T/C,"dose: 1.56 mg/kg/injection, schedule: Q07DX002 (ip), vehicle: saline",110 % of control
same,T/C,"dose: 3.12 mg/kg/injection, schedule: Q07DX002 (ip), vehicle: saline",121 % of control
same,T/C,"dose: 6.25 mg/kg/injection, schedule: Q07DX002 (ip), vehicle: saline",100 % of control
same,T/C,[1],95 % of control
same,T/C,"dose: 25.0 mg/kg/injection, schedule: Q07DX002 (ip), vehicle: saline",120 % of control
same,T/C,[2],68 % of control
COc1cc(NS(C)(=O)=O)ccc1Nc1c2ccccc2nc2ccccc12,T/C,"dose: 0.5 mg/kg/injection, schedule: Q07DX003 (ip), vehicle: other",68 % of control
same,T/C,"dose: 1.0 mg/kg/injection, schedule: Q07DX002 (ip), vehicle: other",93 % of control
same,T/C,"dose: 1.0 mg/kg/injection, schedule: Q07DX003 (ip), vehicle: other",88 % of control
same,T/C,"dose: 2.0 mg/kg/injection, schedule: Q07DX003 (ip), vehicle: other",42 % of control
same,T/C,"dose: 4.0 mg/kg/injection, schedule: Q07DX002 (ip), vehicle: other",78 % of control and 91 % of control
same,T/C,"dose: 4.0 mg/kg/injection, schedule: Q07DX003 (ip), vehicle: other",56 % of control
same,T/C,"dose: 8.0 mg/kg/injection, schedule: Q07DX003 (ip), vehicle: other",47 % of control
